Reference: article PMC5641089, “WX-132-18B, a novel microtubule inhibitor, exhibits promising anti-tumor effects” (Oncotarget, 2017)

Key:
tubulin [1] = test system: T1, tubulin; experiment: competitive colchicine-tubulin fluorescence assay; limited trypsin proteolysis; type: binding, Canis lupus familiaris
T1 construct: tubulin prepared from fresh dog brain tissue; with alpha/beta-tubulin heterodimer

tubulin [2] = test system: T1, tubulin; experiment: competition with BODIPY FL-vinblastine (fluorescence); type: binding, Canis lupus familiaris

Row | Compound | IC50 (tubulin [1]) [µM] | IC50 (tubulin [2]) [µM]
1 | COc1ccc2c(c1)NC(=O)CN2c1nc(C)nc2ccccc12 [WX-132-18B] | 0.47 ± 0.1 | 
2 | CC[C@]1(O)C[C@H]2CN(CCc3c([nH]c4ccccc34)[C@@](C(=O)OC)(c3cc4c(cc3OC)N(C=O)[C@H]3[C@@](O)(C(=O)OC)[C@H](OC(C)=O)[C@]5(CC)C=CCN6CC[C@]43[C@@H]65)C2)C1 [vincristine] |  | 6.97 ± 1.61
